Tested on: BN Rats
Assay: Incidence of skin rash in BN rats, time course study
Format: in vivo
Experimental: The protocol was modeled after that published previously (Shenton et al, Chem. Res. Toxicol. 2005, 18, 1799-1813, and Popovic et al, Chem. Res. Toxicol. 2006, 19, 1205-1214). After a 1-week acclimation period, the rats (n=3 per group) were either treated with the suspension vehicle (1% Tween® 20), or Nevirapine (NVP) (150 mg/kg/day) in suspension, or compounds of Formula I (dNVP) (150 mg/kg) in suspension. Animals were monitored for development of skin rash, and body weight. At the endpoint of the experiment, rats were humanely euthanized using carbon dioxide and exsanguinations.
At day 18, all animals in all three groups were euthanized as the experiment was deemed to have reached its ethical endpoint where no additional dosing was considered appropriate.

Structure (SMILES): Cc1ccnc2c1NC(=O)c1cccnc1N2C1CC1 [NVP, 11-Cyclopropyl-5,11-dihydro-4-methyl-6H-dipyrido[3,2,-b:2′,3′-e][1,4]-diazepin-2-one]
- other visible signs (ears, eyes, feet, tail) (150 mg/kg/day in suspension, at approximately the two-week point): distinctly red ears, edematous eyes, purple feet, and a mottled tail
- behaviour / general health after dosing (150 mg/kg/day in suspension, over entire course of the experiment (to day 18)): inactivity and a lack of responsiveness for about three hours after each dosing
- overall toxicity, NVP compared with compounds of Formula I (150 mg/kg/day in suspension, under controlled conditions): substantially more toxic than compounds of Formula I
- development of skin lesions (skin rash) (n=3 per group, 150 mg/kg/day in suspension (1% Tween 20), observed to day 18): all NVP-treated animals displayed lesions, particularly around the dorsal area of the neck

Reference: patent US20080241289A1, “PREPARATION AND UTILITY OF NON-NUCLEOSIDE REVERSE TRANSCRIPTASE INHIBITORS” (AUSPEX PHARMACEUTICALS, INC., priority 2007, published 2008)
